# Results as given in patent US20200385396A1, “Compond for treatment or prevention of obesity or diseases related to obesity, and application thereof” (SHANGHAI INSTITUTES FOR BIOLOGICAL SCIENCES, CHINESE …, priority 2017, published 2020).
# Legend:
# Wnt signal = experiment: TOPFlash reporter gene activity test in HEK293T cells; format: cell-based
# Description: The HEK293T cells used for the measurement of reporter gene activity were plated at 20 hours before transfection and cultured to about 50% coverage for the transfection. The transfection method was as described above. For HEK293T cells, transfection was performed according to 20 ng TOPFlash, 20 ng GFP and 460 ng lacZ per well, and Wnt3a or Nesfatin-1/NUCB2 protein was added at 18 hours after transfection to stimulate for 6-8 hours, and the cell was lysed with Boehringer Mannheim Luciferase Assay Kit (200 μl/well) for 15 minutes, 50 μl lysate was added in the fluorometer BIO-TEK Synergy2 (Gene Company Limited) to measure the GFP fluorescence intensity in the cell lysate as an internal standard, and then 20 μl luciferase substrate (Roche) was added for the reaction, the luciferase activity was detected in the chemiluminescence channel, and finally the GFP reading was used as an internal standard for homogenization.
# We focus on the three small molecules HLY72, HLY103, and HSS49A (FIG. 3a). […] So that the first biochemical experiment design is: whether these three small molecules can compete for the binding of HLY179 to NUCB2 protein.
# db/db mice and DIO mice = experiment: Long-term administration, weight loss in db/db mice and DIO mice; format: in vivo, mouse
# NUCB2 protein [1] = biological target: T1, NUCB2 protein (Mus musculus, UniProt P81117); experiment: Competitive binding experiment: small molecules compete with Bio78 (HLY179) for NUCB2; details: competitor final concentration 100 μM; HLY179 20 μM
# T1 construct: Immediately the mouse full-length NUCB2 protein expressed in E. coli was purified; His tag (inferred from pET-28A vector, Ni-NTA purification and His antibody); made in house; host or cells: E. coli BL21-CodonPlus (DE3)
# T1 sequence (P81117 25-420): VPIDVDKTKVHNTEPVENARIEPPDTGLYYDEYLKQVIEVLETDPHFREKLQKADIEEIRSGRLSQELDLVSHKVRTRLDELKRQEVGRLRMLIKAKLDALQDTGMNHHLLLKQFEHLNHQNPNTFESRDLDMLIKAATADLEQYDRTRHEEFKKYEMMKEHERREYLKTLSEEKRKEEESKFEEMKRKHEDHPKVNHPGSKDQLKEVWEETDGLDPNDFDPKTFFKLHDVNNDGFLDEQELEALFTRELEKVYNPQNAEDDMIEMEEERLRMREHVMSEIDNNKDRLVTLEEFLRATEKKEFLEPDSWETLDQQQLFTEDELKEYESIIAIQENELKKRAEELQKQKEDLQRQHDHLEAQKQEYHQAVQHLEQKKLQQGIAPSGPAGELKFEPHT
# Description: (§1) When doing the combining experiments, (1) pre-treating Streptavidin-Agarose, washing Streptavidin-Agarose Beads with IP buffer, and spinning it on the rotor for 10 minutes. (2) Re-binding small molecules HLY179 (20 μM) and Streptavidin-Agarose Beads, spinning it in a refrigeration house at 4° C. for 1-2 hours. (3) When the previous step was performed for about 1 hour, the protein was pre-cleared at the same time, and the protein and the washed Streptavidin-Agarose were rotated in a refrigeration house at 4° C. for 30 minutes. (4) the Streptavidin-Agarose Beads binded with HLY179 was centrifuged, the supernatant was removed, washed again with 600 μL of IP buffer (rotated at 4° C. for 3 minutes), centrifuged, and the supernatant was removed carefully. (5) the pre-cleard protein was added and rotated in a refrigeration house at 4° C. for 2 hours. Washd twice with IP buffer 800 μL, 2 minutes each time (all rotated in a refrigeration house at 4° C.). After the last wash, the supernatant was removed, 40 μL of 2*loading was added and cooked for 10 minutes, stored at −20° C. When doing competitive binding experiments, in the third step while pre-treating the protein adding different small molecule compounds, the final concentration was 100 μM, and the rest was the same. Western Blot: Preparing the appropriate concentration of SDS-PAGE gel, adding protein sample for electrophoretic separation. […]
# normal mice = experiment: Food intake of mice after single intraperitoneal injection; format: in vivo, mouse; details: 20 mg/kg intraperitoneal; 0-3 h, 0-6 h, 0-12 h, 0-24 h
# Description: Mice were intraperitoneally injected with DMSO or HLY72 (dissolved in DMSO) 25 μL within 2 hours before turning off the lamp. During the intragastric experiment, the high concentration of HLY72 dissolved in DMSO was dissolved in 10% cyclodextrin, and the total volume was 100 μL Volume by gavage, so that the final concentration of DMSO was less than 10%. The diet was weighed at the 3rd hour, the 6th hour, the 12th hour, and the 24th hour respectively after the lights out. The corresponding mouse body weight was also weighed at the same time before the daily administration. The fat content of mice was measured with the magnetic resonance fat content measuring instrument of the animal platform in SIBCB.
# The next question we are very concerned about is whether HLY78 has similar functions to NUCB2 protein in mice. Up to now, the most classic function reported for NUCB2 protein is to reduce the food intake of mice at night. Therefore, the experiment was designed: 20 mg/kg of HLY78 was injected intraperitoneally within two hours before turning off the lights at night, and then the food intake of the mice was measured at different time points (0-3 h, 0-6 h, 0-12 h, 0-24 h). […] During the three days of the adaptive injection period before HLY78 injection, both groups of mice were injected with DMSO. On the day of injection of HLY78 and the two days before the injection of DMSO, the body weight of the two groups of mice is also the same (FIG. 2b).
# Next, two small molecules HLY72 and HLY103 were selected to perform functional experiments on the food intake in mice.
# NUCB2 protein [2] = biological target: T1, NUCB2 protein; experiment: In vitro binding experiment (streptavidin-agarose pull-down, Western blot) of biotin-linked small molecules with full-length NUCB2; details: mouse full-length NUCB2 expressed in E. coli
# Description: as §1
structure (smiles),measurement,setting,value
CCc1cccc2c1N(C)Cc1cc3c(cc1-2)OCO3 [HLY78],activity of Wnt signal activation,Wnt signal,can synergistically activate
same,weight loss effect,db/db mice and DIO mice,good weight loss effect
same,compete with Bio78 for binding to NUCB2,NUCB2 protein [1],can compete
same,food intake of mice,normal mice,significantly reduce
same,binding of purified NUCB2 protein to small molecule,NUCB2 protein [2],specifically binds
